# Experimental data: ChEMBL document CHEMBL4823312, “Virtual screening and biological evaluation of PPARγ antagonists as potential anti-prostate cancer agents” (Bioorg Med Chem, 2021)
# Biological target: T1, Peroxisome proliferator-activated receptor gamma (Homo sapiens, UniProt P37231)
# T1 sequence (P37231 whole entry): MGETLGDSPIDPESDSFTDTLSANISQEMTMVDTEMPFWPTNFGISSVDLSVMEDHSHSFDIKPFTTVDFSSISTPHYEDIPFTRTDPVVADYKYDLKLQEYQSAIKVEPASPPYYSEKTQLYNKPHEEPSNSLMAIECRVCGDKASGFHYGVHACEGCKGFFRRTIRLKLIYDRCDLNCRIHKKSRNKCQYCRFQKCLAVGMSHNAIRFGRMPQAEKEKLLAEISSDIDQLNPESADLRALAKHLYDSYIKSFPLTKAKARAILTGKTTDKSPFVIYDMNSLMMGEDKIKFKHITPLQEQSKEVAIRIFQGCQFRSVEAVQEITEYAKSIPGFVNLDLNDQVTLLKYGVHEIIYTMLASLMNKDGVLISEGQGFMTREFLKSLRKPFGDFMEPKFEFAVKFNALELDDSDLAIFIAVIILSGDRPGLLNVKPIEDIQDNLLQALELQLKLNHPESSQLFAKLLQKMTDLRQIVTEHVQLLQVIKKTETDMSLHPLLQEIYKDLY
# Test: Antagonist activity at PPARgamma (unknown origin) expressed in human LNCaP cells assessed as suppression of pioglitazone-induced PPAR response element driven firefly luciferase activity measured after 24 hrs by dual luciferase reporter assay
# Format: cell-based
row,IC50,SMILES
1,2300 nM,COc1ccc(O)c(/C=N/c2ccccc2NS(=O)(=O)c2ccc(C)cc2)c1
2,2600 nM,CC(=O)c1cc(C(C)=O)c(CC(=O)C(=O)Nc2cccc(C)c2C)cc1CC(=O)C(=O)Nc1cccc(C)c1C
3,4500 nM,CCN(CC)c1ccc(CN(CC(=O)c2ccc(Cl)c(Cl)c2)Cc2ccccc2)cc1
4,2300 nM,CC(/C=N/Nc1ccc(S(=O)(=O)/N=C/C(C)=C/c2ccccc2)cc1)=C\c1ccccc1
5,1100 nM,COc1cc(OC)c2c(=O)cc(-c3cccnc3)oc2c1
6,2400 nM,O=C(CCCOc1ccc(Cl)cc1Cl)N[C@@H](Cc1c[nH]c2ccccc12)C(=O)O
7,1600 nM,O=C(CNC(=O)Nc1ccc(NC(=O)NCC(=O)Nc2ccc(C3=NCCN3)cc2)cc1)Nc1ccc(C2=NCCN2)cc1
8,5400 nM,O=C(OCc1cccc2ccc3cccc(COC(=O)c4ccccc4)c3c12)c1ccccc1
9,5400 nM,COc1c(OC)c(O)c2c(=O)cc(-c3ccc(O)cc3)oc2c1OC [XANTHOMICROL]
10,2800 nM,O=C1C=C(Nc2ccccc2C(=O)CC(=O)C(=O)Nc2ccc(Cl)c(Cl)c2)c2ccccc2C1=O
11,1500 nM,O=S(=O)(NCCSSCCNS(=O)(=O)c1cccc2cccnc12)c1cccc2cccnc12
12,3500 nM,O=C(O)c1ccccc1-c1ccccc1C(=O)Nc1ccc2c(c1)-c1ccccc1C2
13,1700 nM,O=C(Nc1ccccc1C(=O)N/N=C/c1c(O)ccc2ccccc12)c1ccccc1Cl
14,275000 nM,COc1ccc(NC(=O)CC[C@H](NS(=O)(=O)c2ccc(C)cc2)C(=O)O)cc1
15,2100 nM,O=C(CCCC(=O)N/N=C/c1cccc2ccccc12)N/N=C/c1ccc2ccccc2c1
